{"source": "patent US20160067211A1", "about": "“PHARMACEUTICAL COMPOSITION” (Eberhard Karls Universitaet Tuebingen Medizinische Fakultaet, priority 2013, published 2016)", "key": {"[1]": {"test_system": "SK-MEL-28 melanoma cells", "experiment": "Real time cell monitoring assay (xCELLigence), SK-MEL-28", "assay_type": "cell-based, human", "settings": "SK-MEL-28, 20, 50 and 100 μM, 104 hours, vs. control", "description": "FIG. 5: real time cell monitoring of BLM and SK-MEL-28 melanoma cells treated with 6-PN and 8-PN. (A) BML and SK-MEL-28 cells were treated 24 hours after seeding with different concentrations of 6-PN and 8-PN (20 μM, 50 μM and 100 μM) over a 104 hour time period. The cellular impedance was measured over the entire observation time using the xCELLigence™ SP system and is depicted by the cell index (CI). All CI-values were normalized shortly before the treatment started. […] As a positive control, Triton X-100 0.1% was used to induce cell death. Shown are the mean±SD of three independent experiments, each performed in triplicates (B, C). […]\nThe human melanoma cell lines BLM and SK-MEL-28 (2.5×10^3 cells/well) were seeded in 96 well plates. The cells were treated after 24 hours with different concentrations of 6-PN or 8-PN (20 μM, 50 μM and 100 μM) and monitored by measurements of electrical impedance in 15 minutes intervals for an overall time span of in total 104 hours using the xCELLigencer® SP Systems (Roche Applied Science). The cell index values were calculated using the RTCA software (1.0.0.0805). […]\nThe human metastatic melanoma cell lines BLM and SK-MEL-28 were treated once with rising concentrations of 6-PN or 8-PN (20 μM, 50 μM and 100 μM) and monitored continuously for an overall time span of 104 hours using a real time monitoring assay (FIG. 5A). […]"}, "[2]": {"test_system": "HT-29 colon cancer cells", "experiment": "MUH proliferation assay, HT-29", "assay_type": "cell-based", "settings": "rising concentrations 0.1 μM to 100 μM, 48 hours", "description": "FIG. 6: 6-PN and 8-PN inhibit the growth of MCF-7 and HT-29. (A, B) MUH proliferation assay of HT-29 colon cancer cells and MCF-7 breast cancel cells treated with increasing concentrations of 6-PN and 8-PN (0.1 μM to 100 μM) for 48 hours. Shown are the mean±S.A.; the experiments were performed in quadruplicates.\nThe cells were seeded in triplicates in 96-well plates at a density of 2,500 cells per well in 50 μl medium (5×10^4 cells per milliliter). After 24 hours, the medium was replaced by medium containing 6-PN, 8-PN (dissolved in DMSO), TSA (dissolved in EtOH) or SAHA (dissolved in DMSO) at the concentrations to be tested with or without the addition of the necrosis inhibitor IM-54 at 5 μM (Calbiochem, Darmstadt, Germany). Cells treated with culture medium without or with DMSO served as controls. The assay was started following an incubation of 24 hours. The medium was discarded, each well was washed two times with PBS (without Ca^++ and Mg^++) and 100 μl of a solution containing […] of 4-methyl umbellipheryl heptanoate per ml PBS was added. Plates were incubated at 37° C. for 1 hour and measured in a Fluoroskan II (Lab Systems, Helsinki, Finland) with a […]. The intensity of fluorescence indicates the number of viable cells in the wells. […]"}, "[3]": {"test_system": "BLM melanoma cells", "experiment": "PI/Annexin V staining FACS, BLM", "assay_type": "cell-based, human", "settings": "100 μM; for annexin V positive (apoptotic) cells: DMSO control 4.1%; for PI positive (nectrotic) cells: DMSO control 9.1%", "description": "(§1) (A) Cell cycle FACS analyses of PI stained BLM and SK-MEL-28 melanoma cells. 100 μM of 8-PN-induced a G2 arrest in both cells. (B) FACS analyses of BLM and SK-MEL-28 melanoma cells treated with 100 μM 6-PN or 8-PN and stained for annexin V/PI; staurosporin was used as control for apoptosis induction and DMSO as vehicle control. […] (C) BLM and SK-MEL-28 melanoma cells were treated with 100 μM of PNs; TSA, SAHA and EMSO were used as controls.\n(§2) To further analyze the possibility of apoptosis induction, an extensive apoptosis assay was performed on SK-MEL-28 melanoma cells 4 hours after treatment with 100 μM 6-PN or 8-PN (FIG. 9). […] This was verified by FACS cell cycle analyses to screen for a possible increase of the sub-G1 fraction of cells (apoptotic cells) or for the induction of a G2 arrest (inhibition of proliferation). […] To further differentiate between the induction of apoptosis and/or necrosis an PI/Annexin V staining of SK-MEL-28 and BLM cells was performed 4 hours and 24 hours after the treatment with 6-PN or 8-PN; 10 μM staurosporin (6 hours treatment) was used as positive control for the induction of apoptosis; DMSO treatment was used as vehicle control. The cells were then analyzed by FACS."}, "[4]": {"test_system": "SK-MEL-28 melanoma cells", "experiment": "PI/Annexin V staining FACS, SK-MEL-28", "assay_type": "cell-based, human", "settings": "SK-MEL-28, 100 μM; for annexin V positive (apoptotic) cells: DMSO control 2.5%; for PI positive (nectrotic) cells: DMSO control 7.9%", "description": "as §1, §2"}, "[5]": {"target": "P-glycoprotein (Homo sapiens, UniProt P08183)", "sequence (P08183 whole entry)": "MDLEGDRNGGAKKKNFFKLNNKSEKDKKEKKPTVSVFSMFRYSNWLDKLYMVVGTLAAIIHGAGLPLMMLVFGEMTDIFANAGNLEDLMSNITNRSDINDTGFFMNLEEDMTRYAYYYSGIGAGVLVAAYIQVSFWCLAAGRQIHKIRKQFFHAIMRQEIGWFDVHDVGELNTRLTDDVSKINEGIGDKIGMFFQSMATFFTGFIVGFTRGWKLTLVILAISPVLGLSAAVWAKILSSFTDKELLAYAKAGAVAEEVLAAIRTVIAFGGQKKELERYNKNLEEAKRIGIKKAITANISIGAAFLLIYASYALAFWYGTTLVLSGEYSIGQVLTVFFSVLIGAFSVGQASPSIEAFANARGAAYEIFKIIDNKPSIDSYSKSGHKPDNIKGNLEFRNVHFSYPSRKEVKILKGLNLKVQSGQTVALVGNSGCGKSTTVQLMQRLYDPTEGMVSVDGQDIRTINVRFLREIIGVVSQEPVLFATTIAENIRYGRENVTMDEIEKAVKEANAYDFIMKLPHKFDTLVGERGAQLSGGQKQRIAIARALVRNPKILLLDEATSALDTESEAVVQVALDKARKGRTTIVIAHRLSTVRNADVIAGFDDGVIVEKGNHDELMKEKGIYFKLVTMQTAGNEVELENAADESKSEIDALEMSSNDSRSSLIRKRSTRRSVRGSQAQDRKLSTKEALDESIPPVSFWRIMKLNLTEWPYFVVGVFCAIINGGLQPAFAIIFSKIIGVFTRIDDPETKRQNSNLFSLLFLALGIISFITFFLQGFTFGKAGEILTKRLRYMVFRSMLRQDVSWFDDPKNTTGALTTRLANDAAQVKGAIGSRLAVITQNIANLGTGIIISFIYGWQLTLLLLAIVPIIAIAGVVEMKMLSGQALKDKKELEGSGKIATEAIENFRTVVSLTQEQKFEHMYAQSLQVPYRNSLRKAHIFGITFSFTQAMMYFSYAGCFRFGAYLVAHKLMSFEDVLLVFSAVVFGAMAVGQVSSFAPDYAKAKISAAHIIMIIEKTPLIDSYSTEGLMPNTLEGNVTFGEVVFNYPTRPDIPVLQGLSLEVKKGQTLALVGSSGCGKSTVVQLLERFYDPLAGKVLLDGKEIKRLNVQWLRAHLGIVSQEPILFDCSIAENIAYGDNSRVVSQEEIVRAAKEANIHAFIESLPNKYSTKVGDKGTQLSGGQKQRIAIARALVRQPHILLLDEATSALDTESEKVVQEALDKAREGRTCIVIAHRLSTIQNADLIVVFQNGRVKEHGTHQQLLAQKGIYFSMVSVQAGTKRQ", "settings": "cited from earlier work"}, "[6]": {"test_system": "breast cancer cells MCF-7", "settings": "cited from earlier work"}}, "data": [{"smiles": "CC(C)=CCc1c(O)cc(O)c2c1OC(c1ccc(O)cc1)CC2=O", "note": "(stereo not drawn) [8-PN, 5,7-Dihydroxy-2-(4-hydroxy-phenyl)-8-(3-methyl-but-2-enyl)-chroman-4-one]", "values": [{"measurement": "normalized cell index (CI)", "setting": "[1]", "result": "descended over time"}, {"measurement": "cell proliferation", "setting": "[2]", "result": "severe reduction"}, {"measurement": "annexin V positive (apoptotic) cells", "setting": "[3]; 4 hours", "result": 1.2, "unit": "%"}, {"measurement": "PI positive (nectrotic) cells", "setting": "[3]; 4 hours", "result": 27, "unit": "%"}, {"measurement": "annexin V positive (apoptotic) cells", "setting": "[3]; 24 hours", "result": 5.9, "unit": "%"}, {"measurement": "PI positive (nectrotic) cells", "setting": "[3]; 24 hours", "result": 22.4, "unit": "%"}, {"measurement": "annexin V positive (apoptotic) cells", "setting": "[4]; 4 hours", "result": 0.2, "unit": "%"}, {"measurement": "PI positive (nectrotic) cells", "setting": "[4]; 4 hours", "result": 29.9, "unit": "%"}, {"measurement": "annexin V positive (apoptotic) cells", "setting": "[4]; 24 hours", "result": 0.5, "unit": "%"}, {"measurement": "PI positive (nectrotic) cells", "setting": "[4]; 24 hours", "result": 58.2, "unit": "%"}, {"measurement": "inhibition of the P-glycoprotein", "setting": "[5]", "result": "inhibition"}, {"measurement": "effects on breast cancer cells compared with 17β-Estradiol", "setting": "[6]", "result": "imitates the effects of 17β-Estradiol"}]}]}
